Patent US20240299328A1, “COMPOSITIONS COMPRISING 15-HEPE AND METHODS OF TREATING AND/OR PREVENTING HEMATOLOGIC DISORDERS AND RELATED DISEASES” (Afimmune Limited, priority 2023, published 2024)

Legend:
[1] = tested on: protein and lipid biomarkers of NAFLD patients; assay: Phase IIa NAFLD study: lipidomics and proteomics of blood samples; type: in vivo, human
From the text: Exploratory analysis: The exploratory analysis included analysis of lipid and metabolic parameters including total cholesterol, triglycerides, very low-density lipoprotein cholesterol (VLDL-C), low density lipoprotein cholesterol (LDL-C), high density lipoprotein cholesterol (HDL-C), non-high-density lipoprotein cholesterol (non-HDL-C), remnant-like particle cholesterol (RLP-C), fasting glucose, insulin, free fatty acids and hemoglobin A1C (HbA1C). Additional exploratory analysis included high throughput lipidomics and proteomics.

[2] = tested on: humanized sickle cell (SS) mice exposed to H/R stress; assay: Humanized SCD (SS) mice exposed to hypoxia/reoxygenation (H/R) stress: blood, flow cytometry, immunoblot; type: in vivo
Description: Animals and design of the study: Experiments were performed on 4-5 months-old sex matched healthy control (Hba^tm1(HBA) Tow Hbb^tm3(HBG1, HBB) Tow) and SCD (Hba^tm1(HBA)Tow Hbb^tm2(HBG1.HBB*)Tow) mice. The study used 4-5 months-old mice. The sickle cell related organ damage is not so severe to generate confounding factors when the impact of H/R induced stress is evaluated. This is also corroborated by the observation of Kasztan M et al who show gender-related differences in kidney function of humanized SCD mice becoming significant after 24 weeks (6 months) of age. The size of the mouse groups was established based on studies with the same mouse model for SCD generated by us and other labs. Mice were randomly assigned to the different treatment groups and analysis. Healthy and SS mice were treated with ether vehicle (hydroxypropyl methyl cellulose, HPMC, 0.5%) or Epeleuton in HPMC 0.5% (1000 mg/kg/day) administrated by gavage for 6 weeks. […] When indicated, mice underwent a hypoxia/reoxygenation stress (H/R): 10 hours hypoxia (8% oxygen) followed by 3 hours reoxygenation (21% oxygen) to mimic acute vaso-occlusive crisis as previously described. Whole blood and organs were collected from each mouse under isoflurane anesthesia. Organs were immediately removed and divided into two portions which were either immediately frozen in liquid nitrogen or fixed in 10% formalin and embedded in paraffin for histology. Hematological parameters were evaluated with a Sysmex XN-1000 Hematology Analyzer and red cell morphology was evaluated as previously reported. Biochemical assays were performed using standard biochemical assays, as previously reported. Plasmatic Pentraxin 2 and CCL-2 and CXCL-2 were measured respectively using the Mouse Pentraxin 2/SAP Quantikine ELISA Kit and the next generation ELISA kit according to the manufacturer's instruction.
Immunoblot analysis: Packed red cells were lysed in ice-cold phosphate lysis buffer (5 mM Na2HPO4, pH 8.0, containing protease inhibitor cocktail tablets, 3 mM benzamidine final concentration, 1 mM Na3VO4 final concentration) and centrifuged 10 min at 4° C. at 12,000 g. Red cell membrane (ghost) and cytosol fractions were obtained as previously reported. Frozen lung, kidney and aorta from each studied group were homogenized and lysed with iced lyses buffer (150 mM NaCl, 25 mM bicine, 0.1% SDS, 2% Triton X-100, 1 mM EDTA, protease inhibitor cocktail tablets, 1 mM Na3VO4 final concentration) then centrifuged 30 min at 4° C. at 12,000 g. Specific antibodies used are: anti Phospho-Tyrosine (clone PY99 from SCBT, Santa Cruz, CA (dilution 1:3000, 75 μg loaded) and clone 4G10 from Merck KGaA, Darmstadt, Germany (dilution 1:1600, 75 μgr loaded)); anti Phospho (Ser536) NF-kB p65 (dilution 1:1000, 75 μg loaded) and anti NF-kB p65 (clone C22B4) (dilution 1:1000, 75 μgr loaded) from Cell Signaling Technology (Danvers, MA, USA); anti-NLRP3/NALP3 from Vinci-Biochem Srl, Vinci, Italy (dilution 1:1000, 75 μgr loaded); anti Endothelin-1 (ET-1) form AbCam, Cambridge, UK (dilution 1:1000, 75 μgr loaded); anti VCAM-1 (R and D Systems, Minneapolis, MN, USA (dilution 1:1000, 40 μgr loaded)); anti ICAM-1 (clone EP1442Y, dilution 1:1000, 75 μgr loaded, AbCam, Cambridge, UK); anti TXAS-1 (Cayman, Ann Arbor, MI, USA); anti Nrf2-phospho-S40 (Clone EP1809Y, dilution 1:1000, 75 μgr loaded, AbCam, Cambridge, UK); anti-Nrf2 (dilution 1:1000, 75 μgr loaded, AbCam, Cambridge, UK); anti Nqo1 from Santa Cruz Biotechnology, Inc, CA, USA (clone C-19; dilution 1:1000, 75 μgr/μl loaded); anti-heme oxygenase 1(HO-1) form SCBT (Santa Cruz, CA, USA (dilution 1:1000, 50 μgr loaded); E-selectin (H-300) (dilution 1:1000, 75 μgr loaded); anti GAPDH from SCBT (Santa Cruz, CA, USA (dilution 1:5000, 50 μgr loaded)); anti Actin from SCBT (Santa Cruz, CA, USA (clone 2A3, dilution 1:1000, 50 μgr/loaded)). […]

NAFLD patients = assay: Phase IIa NAFLD study: OWL liver care diagnostic test; type: in vivo, human; conditions: for Change in Diagnosis (Week 16 vs. baseline): Improvement / Change in Diagnosis (Week 16 vs. baseline): Stable / Change in Diagnosis (Week 16 vs. baseline): Worsening: number of patients
From the text: OWL Liver Care is a test that was developed based on the plasma lipidomics in biopsy-confirmed NASH patients and provides high predictive values. OWL Liver Care has an area under the curve (AUC) of 0.88 for distinguishing NAFLD and normal liver patients and an AUC of 0.79 for distinguishing NAFLD without steatohepatitis and NASH patients.

[3] = H/R, 1000 mg/Kg/d for 6 weeks, vs vehicle
[4] = H/R, 1000 mg/Kg/day for 6 weeks
[5] = 1 g DS102 arm, OWL baseline diagnosis NASH
[6] = 1 g DS102 arm, OWL baseline diagnosis No NAFLD
[7] = 1 g DS102 arm, OWL baseline diagnosis Steatosis
[8] = 2 g DS102 arm, OWL baseline diagnosis NASH
[9] = 2 g DS102 arm, OWL baseline diagnosis No NAFLD
[10] = 2 g DS102 arm, OWL baseline diagnosis Steatosis

CC/C=C\C[C@H](O)/C=C/C=C\C/C=C\C/C=C\CCCC(=O)OCC [DS102, 15(S)-hydroxy-(5Z,8Z,11Z,13E,17Z)-eicosapentaenoic acid ethyl ester]
expression of multiple circulating chemokines [1]: decreased | expression of multiple proteins associated with increased cardiovascular risk [1]: decreased | expression of multiple tumor necrosis factor receptor superfamily members [1]: decreased | expression of multiple vascular adhesion molecules [1]: decreased | TR (transferrin receptor protein 1) ([1]; 1 g): significant reductions | NASH drug development targets (CCR2/5 signaling, Galectin3, AOC3) ([1]; 2 g): decreased | levels of multiple glycerophospholipid groups ([1]; 2 g): significantly increased | levels of multiple hepatotoxic diglycerides ([1]; 2 g): significantly decreased | inflammatory and pro-fibrotic proteins (Table 19: PAI-1, TIMP-1, DPP4, TLT2, CCL16, MCP-1, SAA4, PI3/Elafin, TR, LILRB1, TNRSF11A) ([1]; 2 g, Bonferroni and Benjamini-Hochberg testing): decreased | number of markers (inflammation, fibrosis, lipid metabolism, apoptosis, chemotaxis) with significantly downregulated expression ([1]; 2 g, panel of greater than 350 protein biomarkers): over 150 | spleen macrophage classic inflammatory markers (CD80, CD68) ([2]; 1000 mg/Kg/day for 6 weeks, vs vehicle): significant reduction | H/R induced increase in NLRP3, VCAM-1, ET-1 and TXAS-1 expression in kidney ([2]; H/R, 1000 mg/Kg/d for 6 weeks): reduction | NLRP3 inflammasome in lung tissue ([2]; H/R, 1000 mg/Kg/d for 6 weeks): downregulation | VCAM-1 in livers ([2]; H/R, 1000 mg/Kg/d for 6 weeks): prevented the H/R induced up-regulation | activation of NF-kB p65 and Nrf2 in liver ([2]; H/R, 1000 mg/Kg/d for 6 weeks): reduced activation | active forms of NF-kB p65 induced by H/R in lung ([2]; H/R, 1000 mg/Kg/d for 6 weeks): significant decrease | antioxidants NQO1 and HO-1 in liver ([2]; H/R, 1000 mg/Kg/d for 6 weeks): downregulation | expression of NLRP3 in livers ([2]; H/R, 1000 mg/Kg/d for 6 weeks): lower expression | liver protein oxidation ([2]; H/R, 1000 mg/Kg/d for 6 weeks): marked reduction | ET-1 in livers [2, 3]: trend towards reduction | H/R induced activation of NF-kB p65 in kidneys [2, 3]: decreased | H/R induced expression of VCAM-1 in isolated aorta [2, 3]: significant reduction | H/R-induced increases in creatinine and BUN plasma values [2, 3]: reduction | leukocyte infiltrates in kidneys (flow cytometry) [2, 3]: significant reduction | H/R-induced increase in neutrophil counts [2, 4]: significantly reduced | amount of sickled red blood cells [2, 4]: decreased | hematocrit (Hct) and hemoglobin (Hb) [2, 4]: prevented the H/R induced reduction | plasma C reactive protein (CRP) and pentraxin-2 [2, 4]: decreased | spleen neutrophils ([2]; H/R, 1000 mg/Kg/day for 6 weeks, vs vehicle): significant decrease | lactate dehydrogenase (LDH) ([2]; H/R, plasma, 1000 mg/Kg/day for 6 weeks): reduction | tyrosine phosphorylation state of band 3 ([2]; H/R, red cell membrane, 1000 mg/Kg/day for 6 weeks): reduction | clearance of damaged RBCs ([2]; spleen macrophages, 1000 mg/Kg/day for 6 weeks, vs vehicle): trend towards reduction | Change in Diagnosis (Week 16 vs. baseline): Improvement (NAFLD patients; [5]): 5 | Change in Diagnosis (Week 16 vs. baseline): Stable (NAFLD patients; [5]): 14 | Change in Diagnosis (Week 16 vs. baseline): Stable (NAFLD patients; [6]): 3 | Change in Diagnosis (Week 16 vs. baseline): Worsening (NAFLD patients; [6]): 1 | Change in Diagnosis (Week 16 vs. baseline): Stable (NAFLD patients; [7]): 2 | Change in Diagnosis (Week 16 vs. baseline): Worsening (NAFLD patients; [7]): 3 | Change in Diagnosis (Week 16 vs. baseline): Improvement (NAFLD patients; [8]): 5 | Change in Diagnosis (Week 16 vs. baseline): Stable (NAFLD patients; [8]): 7 | Change in Diagnosis (Week 16 vs. baseline): Stable (NAFLD patients; [9]): 2*, ** | Change in Diagnosis (Week 16 vs. baseline): Worsening (NAFLD patients; [9]): 1 | Change in Diagnosis (Week 16 vs. baseline): Improvement (NAFLD patients; [10]): 1 | Change in Diagnosis (Week 16 vs. baseline): Stable (NAFLD patients; [10]): 9 | Change in Diagnosis (Week 16 vs. baseline): Worsening (NAFLD patients; [10]): 4 | OWL liver care diagnosed NASH (NAFLD patients; NAFLD patients, dose dependent, vs placebo at Week 16): significantly improved and normalized
